The values that follow come from publication PMC6258903 (Nature, 2014).

One data set has as its target T1, Axl (Homo sapiens, UniProt P30530).
T1 sequence (P30530 26-894): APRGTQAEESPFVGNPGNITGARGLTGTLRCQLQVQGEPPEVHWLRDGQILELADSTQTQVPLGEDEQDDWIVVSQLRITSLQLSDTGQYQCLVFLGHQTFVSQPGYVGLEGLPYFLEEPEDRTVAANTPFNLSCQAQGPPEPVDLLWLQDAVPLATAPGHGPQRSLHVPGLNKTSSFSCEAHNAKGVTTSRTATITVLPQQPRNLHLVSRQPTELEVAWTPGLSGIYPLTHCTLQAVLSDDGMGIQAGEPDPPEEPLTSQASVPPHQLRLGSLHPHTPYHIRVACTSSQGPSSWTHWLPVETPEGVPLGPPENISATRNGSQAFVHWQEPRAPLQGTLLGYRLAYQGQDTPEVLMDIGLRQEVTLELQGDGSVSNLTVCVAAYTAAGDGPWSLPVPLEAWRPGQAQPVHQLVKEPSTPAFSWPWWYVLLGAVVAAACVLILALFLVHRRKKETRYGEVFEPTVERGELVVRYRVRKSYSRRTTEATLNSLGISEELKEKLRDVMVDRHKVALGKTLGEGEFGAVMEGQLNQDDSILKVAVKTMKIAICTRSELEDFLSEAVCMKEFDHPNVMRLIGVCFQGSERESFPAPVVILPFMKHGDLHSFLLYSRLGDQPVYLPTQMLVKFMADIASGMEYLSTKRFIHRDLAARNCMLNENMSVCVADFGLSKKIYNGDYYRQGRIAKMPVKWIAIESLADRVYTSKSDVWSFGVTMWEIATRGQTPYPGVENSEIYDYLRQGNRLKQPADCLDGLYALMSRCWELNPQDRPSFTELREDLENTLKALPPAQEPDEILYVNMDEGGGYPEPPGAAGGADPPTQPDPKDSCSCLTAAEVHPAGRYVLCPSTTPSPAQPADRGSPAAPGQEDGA
In words: Tracer-based kinase binding assay.

Data set [1] relates to 95 different cancer cell lines. In words: Proliferation assay on a panel of cancer cell lines. It counts as cell-based.
For a further data set, the system named is RMA-S cells. The data set can be described thus: In vivo NK cell cytotoxicity towards RMA-S cells. The note with it: Cbl-b+/+ mice treated for 7 days before inoculation.
The nature of data set [2]: Prothrombine time and bleeding in warfarin-treated mice.
The test system of the next data set is B16F10 melanoma. The data set can be described thus: B16F10 metastatic melanoma model, low dose warfarin in drinking water. The class given is in vivo, mice. The note with it: for melanoma metastases to the lungs and distal organs: low dose warfarin 0.5mg/l in drinking water.
For a further data set, the system named is RMA-Rae1 cells. In words: In vivo NK cell cytotoxicity towards RMA-Rae1 cells. The note with it: warfarin, Cbl-b+/+ mice treated for 7 days before inoculation.

The structures appear in SMILES notation.

As for `CCOc1ccn(-c2ccc(F)cc2)c(=O)c1C(=O)Nc1ccc(Oc2ccnc(N)c2Cl)c(F)c1` [BMS-777607/ASLAN002], at Axl, the “inhibitory activity of reference compounds in the Axl HTRF assay” value (“inhibitory activity” for short) is on record as “showed inhibitory activities as expected”.

Take `Cc1nc(Nc2ncc(C(=O)Nc3c(C)cccc3Cl)s2)cc(N2CCN(CCO)CC2)n1` [dasatinib]: the IC50 in data set [1] (read-out: IC50 proliferation, non-specific kinase inhibitors) is less than 0.1 µM.

On to `Cc1ccc(NC(=O)c2ccc(CN3CCN(C)CC3)cc2)cc1Nc1nccc(-c2cccnc2)n1` [imatinib], for which the “proliferation inhibition profile, specific kinase blockers” value in data set [1] (same panel, e.g. K562 cells) is “inhibit proliferation of only a few cell lines”.

As to `CN[C@@H]1C[C@H]2O[C@@](C)([C@@H]1OC)n1c3ccccc3c3c4c(c5c6ccccc6n2c5c31)C(=O)NC4` [staurosporine], on Axl, the “inhibitory activity” value is recorded as “showed inhibitory activities as expected”.

As to `CCN(CC)CCNC(=O)c1c(C)[nH]c(/C=C2\C(=O)Nc3ccc(F)cc32)c1C` [sunitinib], at Axl, the “inhibitory activity” value is “showed inhibitory activities as expected”.

Consider `CC(=O)CC(c1ccccc1)c1c(O)c2ccccc2oc1=O` (stereo not drawn) [warfarin], for which, in the data set on RMA-S cells, the “in vivo NK cell cytotoxicity towards RMA-S” value is on record as “enhanced in vivo NK cell cytotoxicity”. In data set [2] (0.5mg/l in drinking water for 21 days), the “prothrombine time / coagulopathy” value is recorded as “does not cause a coagulopathy”. For the same compound, the bleeding entry in data set [2] (warfarin-treated mice compared to vehicle controls) is reported as “never observed neither spontaneous nor excessive bleeding”. The “melanoma metastases to the lungs and distal organs” value is on record as “had no apparent effect” in the data set on B16F10 melanoma (Cbl-b defective mice); “markedly reduced melanoma metastases” in the data set on B16F10 melanoma (Cbl-b+/+ and Cbl-b+/- mice, day +16). The metastatic melanomas entry in the data set with B16F10 melanoma (low dose warfarin, absence of NK1.1+ cells) is reported as “abolished the effects of warfarin”. Besides, the “in vivo NK cell cytotoxicity towards RMA-Rae1” value in the data set with RMA-Rae1 cells is reported as “enhanced in vivo NK cell cytotoxicity”.
